We go through two compounds from patent publication US20060241108A1, “Substituted phenoxazines and acridones as inhibitors of AKT” (St. Jude Children's Research Hospital, priority 2005, published 2006).

Experiment [1] concerns the target T1, recombinant, full length AKT1/PKBα (Homo sapiens, UniProt P31749).
T1 construct: active, recombinant, full length AKT1/PKBα protein; purchased Upstate Biotechnology, Lake Placid, N.Y
The experiment can be described thus: In vitro inhibition of recombinant AKT (GSK-3 fusion protein phosphorylation). The conditions noted are these: 5 μM, pre-incubated two hours on ice. In kind it is biochemical. The protocol:
In vitro inhibition of recombinant AKT. In vitro kinase assays can be performed using an active, recombinant, full length AKT1/PKBα protein (available from Upstate Biotechnology, Lake Placid, N.Y.) or with an active, recombinant AKT1/PKBα protein, referred to herein as AKT1ΔPH, that lacks the pleckstrin homology domain (also available from Upstate Biotechnology). 10 ng of the recombinant enzyme in 25 μl 1× kinase buffer (25 mM Tris, pH 7.5; 5 mM β-glycerol phosphate; 2 mM dithiothreitol; 0.1 mM Na3VO4; and 10 mM MgCl2) is mixed with 2.5 μl of DMSO and a test compound (5 μM). […] After incubating the suspensions at 30° C. for 30 minutes, the reaction can be terminated by the addition of 3×SDS sample buffer (187.5 mM Tris-HCl, pH 6.8; 6% SDS; 30% glycerol; 150 mM dithiothreitol; and 0.03% bromophenol blue). The samples are then boiled for five minutes. The proteins can be separated on a 12% SDS polyacrylamide gel, and subsequently transferred to a nitrocellulose membrane. The membranes are preferably incubated with rabbit polyclonal anti-phospho-GSK-3α/β (Ser21/9) antibody (available from Cell Signaling Technology, Beverly, Mass., catalog # 9331).
The phosphorylation status of GSK-3 protein can also be used to study the AKT inhibitory activity of phenoxazines (including the phenoxazine compounds listed in Table I above) and acridone compounds. […]

The next experiment deals with Rh1 cells. Nature of the experiment: Cell growth inhibition, Rh1 cells. Format: cell-based, human. The conditions noted are these: complete medium, six days, nuclei counted. Here is the method: Cell lines and growth conditions. The human cell lines Rh1, Rh18, and Rh30 (ATCC Deposit # CRL 2061) have been described, e.g., by Hazelton et al. Cancer Res 1987;47:4501-4507 and Hosoi et al. Cancer Res. 1999;59:886-894. Rh1, Rh18 and Rh30 cells can each be grown in antibiotic free RPMI-1640 medium (available from BioWhittaker, Walkersville, Md.), supplemented with 10% fetal bovine serum (available from HyClone Laboratories, Logan, Utah) and 2 mM L-glutamine (available from BioWhittaker, Walkersville, Md.) at 37° C. in an atmosphere of 5% CO2. For serum free experiments, cells can be cultured in modified N2E (MN2E) medium (DMEM/F-12, 1:1 mixture) (Sigma, St. Louis, Mo.) supplemented with 1 μg/ml human holo transferrin, 30 nM sodium selenite, 20 nM progesterone, 100 μM putrescine, 30 nM vitamin E phosphate, and 50 μM ethanolamine. […]
Cell growth inhibition. […] Growth can be assessed after lysing cells, and counting nuclei. […]
The effect(s) of compounds, including phenoxazine compounds such as those listed in Table I, above, on cell growth can be evaluated in cell-based assays such as the exemplary assays described here. Rh1, Rh18 and/or Rh30 cells grown in complete medium can be exposed to graded concentrations of test compound (e.g., from 0.1 to 25 μM) for six days, at which time the cells can be lysed and their growth assessed by counting nuclei. […]

T1 sequence (P31749 whole entry): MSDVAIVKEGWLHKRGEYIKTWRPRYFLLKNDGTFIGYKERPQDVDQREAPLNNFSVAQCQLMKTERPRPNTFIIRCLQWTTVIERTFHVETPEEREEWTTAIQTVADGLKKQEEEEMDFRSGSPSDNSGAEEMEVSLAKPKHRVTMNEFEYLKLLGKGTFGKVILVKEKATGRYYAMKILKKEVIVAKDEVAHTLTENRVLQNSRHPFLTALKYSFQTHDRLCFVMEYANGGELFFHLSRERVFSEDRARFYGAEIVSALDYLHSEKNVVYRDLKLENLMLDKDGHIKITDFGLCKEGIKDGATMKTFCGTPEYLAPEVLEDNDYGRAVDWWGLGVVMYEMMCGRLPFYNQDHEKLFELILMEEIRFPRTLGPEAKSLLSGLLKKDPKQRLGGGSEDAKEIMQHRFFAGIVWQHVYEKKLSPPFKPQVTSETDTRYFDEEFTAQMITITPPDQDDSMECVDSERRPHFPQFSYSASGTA

A word on the IC50: it is the point on the concentration scale where inhibition reaches its midpoint. A high value points to weaker potency. As to “10-[4′-[(β-hydroxyethyl)piperazino]butyl]-2-chlorophenoxazine [Compound 15B]”, the “inhibition of GSK-3 phosphorylation by recombinant AKT” value in experiment [1] is “completely blocked”. In the experiment with Rh1 cells, half-maximal inhibition (IC50) was put at 2000 nM.
Consider `CCN(CC)CCCCN1c2ccccc2Oc2ccc(Cl)cc21` [Compound 10B, 10-[4′-(N-diethylamino)butyl]-2-chlorophenoxazine], for which the “inhibition of GSK-3 phosphorylation by recombinant AKT” value in experiment [1] is “at least nearly complete”. Moreover, the IC50 with Rh1 cells turned out to be 2000 nM.
